Results published in article PMC4559389, “Tumor Detection at 3 Tesla with an Activatable Cell Penetrating Peptide Dendrimer (ACPPD-Gd), a T1 Magnetic Resonance (MR) Molecular Imaging Agent” (PLoS ONE, 2015).
Values joined by “and” are separate entries in the source; they are usually repeats but may differ in a detail not shown here. Equal values may be shown once. “Also recorded” adds a separate entry of the source.

What was measured:
Assay type in all cases: in vivo, albino C57BL/6 mice
[1] = Post mortem tissue Gd content by ICP-MS; settings: ACPPD-Gd 24 h post, gadobutrol at equilibrium phase
Method: Mice were sacrificed immediately after the 14-day MRI study and tumors, liver, kidneys, and muscle were harvested and immediately frozen at -20°C for later analysis. Tissue Gd content was measured using inductively coupled plasma-mass spectrometry (ICP-MS) on defrosted and weighted tissues. Less than 100mg samples of each tissue were placed in 900uL of nitric acid on a Gyromixer overnight at room temperature. The next day, 200μL of 30% hydrogen peroxide were added, and after 2 hours the samples were heated to 90–100°C for 2 hours. Tuning solution was then added to a 5mL total volume. Samples were then run in an Agilent Technologies 7700 Series ICP-MS to measure gadolinium content in parts-per-billion. Tissue Gd concentration in micromolar was calculated as (ppb of Gd/Gd molecular weight)*(total weight of solution measured/tissue wet weight).

Py8119 mammary tumor [2] = assay: Blinded reader tumor detection on 3T MRI (ROC/AUC, inter-observer kappa); settings: for AUC (95%CI) of ROC curve for tumor presence, Reader 1 (experienced), all tumors (n = 107) / AUC (95%CI) of ROC curve for tumor presence, Reader 2 (trainee), all tumors (n = 107): 288 breasts, ACPPD-Gd 24 h post, gadobutrol 2–3 min post; for AUC (95%CI) of ROC curve for tumor presence, Reader 1 (experienced), tumors <5mm^3 (n = 58) / AUC (95%CI) of ROC curve for tumor presence, Reader 2 (trainee), tumors <5mm^3 (n = 58): obvious tumors (>5mm^3) removed
Excerpt: The acquired 72 studies (3 groups x 8 mice x 3 time points) with 4 pulsing sequences each were anonymized and presented at random to 2 observers blinded to contrast grouping, time since inoculation, and which 2 nipples were inoculated with tumor. Reader 1 is an MR expert with extensive experience in clinical and animal MR image interpretation (RFM) and Reader 2 is a 2nd-year radiology resident in training (ESO). Studies were reviewed independently and readers reported whether the breast tissue under each of the 4 nipples in each study was normal or contained tumor along with their confidence level as low, medium, or high. If a tumor was present they described the degree and pattern of tumor enhancement.
Receiver operating characteristic (ROC) curves were constructed using 4 levels: normal, low, medium and high probability for tumor presence. There were 288 breasts evaluated (3 groups x 8 animals x 3 time-points x 4 breasts). […] Additional ROC curves were constructed for tumors <5mm^3 to assess the potential benefit of ACPPD-Gd in detecting small tumors. Interobserver agreement was assessed for all 288 breasts and within each of the 3 contrast groups using the kappa statistic. Area under the ROC curve (AUC) was calculated for the 3 contrast groups using the JROC web-based program.

Py8119 mammary tumor [3] = assay: T1-weighted MR tumor enhancement at 3T in mice with mammary fat pad tumors
Excerpt: The University of California San Diego Institutional Animal Care and Use Committee (IACUC) approved this research under protocol S04011. All steps were ensured to minimize pain and suffering of all animals during the course of this experiment. Anesthesia during tumor inoculation and MR imaging was isoflurane/O2. All animals were given free access to food and water ad libitum during the entire study. Euthanasia involved CO2 asphyxiation followed by cervical dislocation. Each of the 4 inguinal nipples of 16 albino C57BL/6 (Harlan Labs) mice were randomized such that each mouse had 2 mammary fat pads inoculated with 10^4 Py8119 mammary tumor cells and the other 2 with an equal volume of saline. […]
All mice were imaged on days 4, 9, and 14 after inoculation under isoflurane/O2 anesthesia. […] Optimal ACPPD-Gd dose and imaging time were previously determined. […]
Tumor signal and size were quantified at each time point using region-of-interest (ROI) analysis with OsiriX software (Pixmeo, Geneva). […] Tumors <1mm^3 were not analyzed because of unreliable ROI placement and partial volume effects. A polygonal ROI was traced around the tumor on the fat-saturated T1-weighted axial sequence at its maximal dimension and the average signal and cross-sectional area recorded. […] Tumor volume was calculated using an ellipsoid function as 4/3*(area of tumor ROI)*(1/2)*(maximal orthogonal coronal diameter). […]

## O=C([O-])CN1CCN(CC(=O)[O-])CCN([C@H](CO)[C@H](O)CO)CCN(CC(=O)[O-])CC1.[Gd+3] (racemic) [gadobutrol, Gd-DO3A-butrol]
[1]; ICP-MS of tumors, liver, kidneys, muscle
  Gd biodistribution: organ of dominant accumulation: the majority of Gd was in the kidneys
[1]; ICP-MS, 14 days after inoculation, mean±SD
  Tumor to muscle Gd concentration ratio: 2.7 ± 1.0
Py8119 mammary tumor [2]
  AUC (95%CI) of ROC curve for tumor presence, Reader 1 (experienced), all tumors (n = 107): 0.91 and 0.92
  AUC (95%CI) of ROC curve for tumor presence, Reader 2 (trainee), all tumors (n = 107): 0.81
  AUC (95%CI) of ROC curve for tumor presence, Reader 1 (experienced), tumors <5mm^3 (n = 58): 0.86
  AUC (95%CI) of ROC curve for tumor presence, Reader 2 (trainee), tumors <5mm^3 (n = 58): 0.69
Py8119 mammary tumor [2]; listed as Gadobutrol
  AUC (95%CI) of ROC curve for tumor presence, Reader 1 (experienced), all tumors (n = 107): 0.92 (0.86, 0.98)
  AUC (95%CI) of ROC curve for tumor presence, Reader 2 (trainee), all tumors (n = 107): 0.81 (0.73, 0.90)
  AUC (95%CI) of ROC curve for tumor presence, Reader 1 (experienced), tumors <5mm^3 (n = 58): 0.86 (0.75, 0.96)
  AUC (95%CI) of ROC curve for tumor presence, Reader 2 (trainee), tumors <5mm^3 (n = 58): 0.69 (0.57, 0.81)
Py8119 mammary tumor [3]; 3T axial fat-saturated T1w images
  Pattern of tumor enhancement: more apparent at the tumor periphery; also recorded: enhanced predominantly the tumor rim
Py8119 mammary tumor [3]; 3T, ACPPD-Gd 24 h after 0.036 mmol Gd/kg, gadobutrol 2–3 min after 0.1 mmol/kg, mean±SD, p = 0.03
  T1w tumor enhancement, small tumors (1-5mm^3): 19±18%
